Earlier results on one compound are cited in patent publication US20240033221A1, “LONG-ACTING BUPIVACAINE MICROSPHERE FORMULATIONS” (Scienture, Inc., priority 2020, published 2024).

Structures can show the parent of a compound that is named as a salt.

For the series the following is noted: dental injections.

Consider `CCCCN1CCCCC1C(=O)Nc1c(C)cccc1C` (centres unmarked) [bupivacaine HCl, bupivacaine hydrochloride], for which the duration of action is 2 to 8 h and the onset of action is 2 to 10 min.
